Earlier results in patent US10610500B2, “Chemosensory receptor ligand-based therapies” (Anji Pharma (US) LLC, priority 2011, dated 2020).

How the values were obtained:
gut hormones = settings: humans
[1] = test system: L cells located in the gut; settings: administration of metformin
sweet receptor = target: T1, sweet receptor (Homo sapiens, UniProt Q7RTX0+Q8TE23); settings: relative sweetness on a weight comparison basis to sucrose (=1.0); ranges: relative sweetness varied with the concentration of sucrose
T1 sequence (Q8TE23 20-839): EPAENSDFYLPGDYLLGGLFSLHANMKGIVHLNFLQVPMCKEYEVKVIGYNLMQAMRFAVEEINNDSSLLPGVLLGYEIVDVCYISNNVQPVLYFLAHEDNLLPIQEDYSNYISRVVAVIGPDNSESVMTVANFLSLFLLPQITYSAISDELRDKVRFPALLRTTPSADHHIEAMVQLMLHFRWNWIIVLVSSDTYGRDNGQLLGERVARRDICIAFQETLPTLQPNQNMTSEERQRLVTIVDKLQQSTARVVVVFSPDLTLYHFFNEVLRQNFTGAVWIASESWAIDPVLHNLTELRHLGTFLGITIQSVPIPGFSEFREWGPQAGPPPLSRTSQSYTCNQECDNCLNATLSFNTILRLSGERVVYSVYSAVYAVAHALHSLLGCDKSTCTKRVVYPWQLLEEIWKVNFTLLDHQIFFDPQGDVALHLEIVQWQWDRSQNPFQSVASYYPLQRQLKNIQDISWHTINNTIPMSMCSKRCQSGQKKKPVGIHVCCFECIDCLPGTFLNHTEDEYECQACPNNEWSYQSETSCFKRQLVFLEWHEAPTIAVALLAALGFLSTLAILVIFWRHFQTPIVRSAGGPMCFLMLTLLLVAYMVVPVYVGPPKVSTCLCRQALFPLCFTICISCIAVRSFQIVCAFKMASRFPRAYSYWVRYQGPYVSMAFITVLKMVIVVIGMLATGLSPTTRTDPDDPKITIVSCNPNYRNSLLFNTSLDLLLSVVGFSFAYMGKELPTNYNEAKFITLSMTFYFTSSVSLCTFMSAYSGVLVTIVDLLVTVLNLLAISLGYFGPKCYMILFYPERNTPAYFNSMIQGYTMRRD
T1 sequence (Q7RTX0 21-852): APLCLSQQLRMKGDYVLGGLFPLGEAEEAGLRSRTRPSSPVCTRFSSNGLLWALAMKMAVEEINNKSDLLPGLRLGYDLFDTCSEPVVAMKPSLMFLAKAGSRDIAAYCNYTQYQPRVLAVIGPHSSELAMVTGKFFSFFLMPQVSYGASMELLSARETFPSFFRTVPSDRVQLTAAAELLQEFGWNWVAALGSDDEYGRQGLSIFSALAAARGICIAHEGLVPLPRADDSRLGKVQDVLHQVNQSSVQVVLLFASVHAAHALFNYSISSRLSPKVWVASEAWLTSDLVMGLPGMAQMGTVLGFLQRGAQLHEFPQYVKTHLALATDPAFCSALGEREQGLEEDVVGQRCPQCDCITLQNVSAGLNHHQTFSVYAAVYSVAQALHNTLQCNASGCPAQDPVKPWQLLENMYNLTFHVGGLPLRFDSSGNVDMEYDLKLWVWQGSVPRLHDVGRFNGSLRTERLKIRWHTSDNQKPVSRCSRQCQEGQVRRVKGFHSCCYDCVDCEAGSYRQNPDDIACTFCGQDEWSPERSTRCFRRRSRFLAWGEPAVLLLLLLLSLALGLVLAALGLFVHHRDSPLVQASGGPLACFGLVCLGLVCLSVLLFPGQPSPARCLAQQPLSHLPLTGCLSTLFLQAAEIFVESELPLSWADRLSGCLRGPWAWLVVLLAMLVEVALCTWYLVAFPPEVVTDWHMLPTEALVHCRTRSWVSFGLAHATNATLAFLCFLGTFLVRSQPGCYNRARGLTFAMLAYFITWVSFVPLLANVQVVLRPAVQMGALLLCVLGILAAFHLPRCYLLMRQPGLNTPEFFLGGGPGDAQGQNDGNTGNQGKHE

Compound | Sweetness/potency (sweet receptor) | also measured
C=C1C[C@@]23CC[C@H]4[C@@](C)(CCC[C@@]4(C)C(=O)O[C@@H]4O[C@H](CO)[C@@H](O)[C@H](O)[C@H]4O)[C@@H]2CC[C@]1(O[C@@H]1O[C@H](CO)[C@@H](O)[C@H](O[C@@H]2O[C@H](CO)[C@@H](O)[C@H](O)[C@H]2O)[C@H]1O[C@@H]1O[C@H](CO)[C@@H](O)[C@H](O)[C@H]1O)C3 [Rebaudioside A] | – | gut hormones in the circulation (gut hormones): no alterations
CN(C)C(=N)N=C(N)N [metformin] | – | release of GLP-1 from the L cells [1]: increases
C/C(=C\CC/C(C)=C/CO[C@@H]1O[C@H](CO)[C@@H](O)[C@H](O[C@@H]2O[C@@H](C)[C@H](O)[C@@H](O)[C@H]2O)[C@H]1O[C@@H]1O[C@@H](C)[C@H](O)[C@@H](O)[C@H]1O)CC/C=C(\C)CO[C@@H]1O[C@H](CO)[C@@H](O)[C@H](O[C@@H]2O[C@@H](C)[C@H](O)[C@@H](O)[C@H]2O)[C@H]1O[C@@H]1O[C@@H](C)[C@H](O)[C@@H](O)[C@H]1O [Mukurozioside IIb] | ca. 1 | –
C=C1C[C@@]23CC[C@H]4[C@@](C)(CCC[C@@]4(C)C(=O)O[C@@H]4O[C@H](CO)[C@@H](O)[C@H](O)[C@H]4O)[C@@H]2CC[C@]1(O[C@@H]1O[C@H](CO)[C@@H](O)[C@H](O)[C@H]1O[C@@H]1O[C@@H](C)[C@H](O)[C@@H](O)[C@H]1O)C3 [Dulcoside A] | 30 | –
COc1c(O)cc2c(c1O)C(=O)[C@H](O)[C@@H](c1ccc(O)c(O)c1)O2 [(2R,3R)-2,3-Dihydro-5,7,3',4'-tetrahydroxy-6-methoxyflavonol] | 15 | –
C[C@@H]1O[C@@H](O[C@H]2O[C@@H]([C@@H](C)C3CC[C@@H]4[C@H]5CC(=O)[C@@H]6C[C@H](O[C@@H]7O[C@H](CO)[C@@H](O)[C@H](O)[C@H]7O[C@@H]7O[C@@H](C)[C@H](O)[C@@H](O)[C@H]7O)CC[C@]6(C)[C@@H]5CC[C@]34C)CC[C@@H]2C)[C@H](O)[C@H](O)[C@H]1O (stereo partly shown) [Osladin] | 500 | –
CC[C@@H](C)C(=O)O[C@@H](C)[C@]1(O)CC[C@]2(O)[C@@H]3CC[C@H]4C[C@@H](O[C@@H]5C[C@H](O)[C@H](O[C@H]6C[C@H](OC)[C@H](O[C@H]7C[C@@H](OC)[C@H](O[C@H]8C[C@@H](OC)[C@H](O[C@@H]9O[C@H](C)[C@@H](O[C@@H]%10O[C@H](CO)[C@@H](O)[C@H](O)[C@H]%10O)[C@H](OC)[C@H]9O)[C@@H](C)O8)[C@@H](C)O7)[C@@H](C)O6)[C@@H](C)O5)CC[C@]4(C)[C@H]3C[C@@H](OC(C)=O)[C@]12C [Telosmoside A15] | 1000 | –
